From the supplement of paper PMC10307832

Key:
[1] = compound: C1=CC2=NC=CN=C2C=C1/C=C/3\C(=O)NC(=O)S3 + NC(=O)Nc1cc(-c2cccc(F)c2)sc1C(=O)N[C@H]1CCCNC1 [AZD7762] (partner 0.2 µM); experiment: relative viability (nuclei count vs DMSO), 5 days (fraction); higher = more cells survive
Outline: (§1)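 Lung cancer cell lines, seeded in 1536-well plates, were treated the following day by pin tool with a single drug or with five library-drug doses (not always all listed) in √10 steps on top of a fixed anchor-drug dose. Cells were fixed and nuclei stained in one step after 5 days, and nuclei were counted. Relative viability is the nuclei count for treated wells divided by that for vehicle wells, reported as medians of duplicate plates.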

[2] = compound: C1=CC2=NC=CN=C2C=C1/C=C/3\C(=O)NC(=O)S3 + CC(=O)Nc1cccc(-n2c(=O)n(C3CC3)c(=O)c3c(Nc4ccc(I)cc4F)n(C)c(=O)c(C)c32)c1 [Trametinib] (partner 0.02 µM); experiment: as above
Outline: as §1

Cell Line	relative viability ([1]; first compound 0.02 µM)	relative viability ([1]; first compound 0.06325 µM)	relative viability ([1]; first compound 0.2 µM)	relative viability ([1]; first compound 0.6325 µM)	relative viability ([1]; first compound 2 µM)	relative viability ([2]; first compound 0.02 µM)	relative viability ([2]; first compound 0.06325 µM)	relative viability ([2]; first compound 0.2 µM)	relative viability ([2]; first compound 0.6325 µM)	relative viability ([2]; first compound 2 µM)
201T	0.651	0.531	0.625	0.609	0.576	0.669	0.726	0.718	0.736	0.713
A-427	0.826	0.849	0.709	0.8	0.776	0.777	0.773	0.725	0.75	0.596
ABC-1	0.696	1.23	1.1	0.819	0.957	–	–	–	–	–
BEN	0.727	0.701	0.842	0.627	0.497	1.06	0.885	0.986	1.05	0.856
CAL-12T	0.675	0.531	0.655	0.582	0.726	0.398	0.301	0.426	0.309	0.271
COR-L23	–	–	–	–	–	0.557	0.596	0.617	0.567	0.422
COR-L 105	–	–	–	–	–	0.422	0.549	0.451	0.408	0.423
ChaGo-K-1	0.799	0.821	0.905	0.791	0.83	0.9	0.785	0.888	0.887	0.872
EKVX	0.677	0.653	0.595	0.692	0.436	0.301	0.392	0.32	0.322	0.33
EMC-BAC-2	1.11	1.18	1.21	1.08	0.651	0.92	0.944	0.892	0.879	0.713
EPLC-272H	0.332	0.319	0.333	0.192	0.293	0.253	0.261	0.273	0.296	0.293
H3255	0.716	0.819	0.903	0.901	0.825	0.607	0.698	0.643	0.6	0.699
HARA	0.255	0.209	0.402	0.276	0.493	0.477	0.632	0.507	0.788	0.672
HCC-15	1.01	1.05	1.16	1.18	1	0.41	0.393	0.397	0.353	0.263
HCC-44	0.885	1	1.02	1.01	1	0.961	1	1.05	1.12	1
HCC-78	0.681	0.567	0.684	0.732	0.202	0.772	0.643	0.677	0.794	0.532
HCC-366	0.276	–	0.247	0.235	0.303	0.307	–	0.39	0.311	0.309
HCC-827	0.218	0.155	0.261	0.265	0.114	0.611	0.35	0.505	0.456	0.544
HOP-62	0.847	0.91	0.516	0.434	0.685	0.355	0.366	0.419	0.369	0.38
LC-2-ad	0.768	0.817	0.848	0.798	0.619	0.884	0.991	0.931	0.972	0.83
LCLC-97TM1	0.21	0.219	0.253	0.269	0.113	0.197	0.193	0.222	0.232	0.167
LCLC-103H	0.658	0.886	0.828	0.749	0.629	0.676	0.701	0.634	0.665	0.666
LK-2	0.43	0.538	0.466	0.4	0.14	0.769	0.813	0.847	0.828	0.567
LOU-NH91	0.74	0.755	0.797	0.733	0.55	0.791	0.808	0.799	0.792	0.726
LU99A	0.392	0.352	0.369	0.36	0.223	0.564	0.47	0.607	0.587	0.427

Cell Line	relative viability ([1]; first compound 0.02 µM)	relative viability ([1]; first compound 0.06325 µM)	relative viability ([1]; first compound 0.2 µM)	relative viability ([1]; first compound 0.6325 µM)	relative viability ([1]; first compound 2 µM)	relative viability ([2]; first compound 0.02 µM)	relative viability ([2]; first compound 0.06325 µM)	relative viability ([2]; first compound 0.2 µM)	relative viability ([2]; first compound 0.6325 µM)	relative viability ([2]; first compound 2 µM)
LXF-289	1.06	0.975	1.1	0.986	1.18	0.671	0.655	0.649	0.662	0.688
NCI-H23	0.227	0.242	0.227	0.182	0.21	0.346	0.489	0.361	0.394	0.223
NCI-H322M	0.559	0.598	0.607	0.51	0.498	0.535	0.507	0.469	0.503	0.383
NCI-H358	0.556	0.406	0.621	0.473	0.204	0.145	0.122	0.139	0.126	0.11
NCI-H441	1.07	1.18	1.3	1	1.1	0.409	0.52	0.451	0.343	0.305
NCI-H460	0.581	0.438	0.576	0.621	0.456	0.0917	0.0921	0.223	0.11	0.0876
NCI-H520	–	–	–	–	–	0.648	0.65	0.812	0.664	0.62
NCI-H522	0.811	0.919	1.07	0.772	0.86	0.75	0.781	0.806	0.771	0.659
NCI-H596	1.15	1.14	1.19	0.907	0.956	0.764	0.771	0.794	0.887	0.722
NCI-H647	0.714	0.403	0.572	0.425	0.382	0.459	0.52	0.545	0.444	0.389
NCI-H650	0.866	1.06	1.17	0.959	0.69	0.971	0.927	1.3	0.994	0.69
NCI-H661	–	–	–	–	–	0.709	0.557	0.606	0.526	0.618
NCI-H727	0.597	0.63	0.737	0.678	0.337	0.386	0.369	0.407	0.397	0.29
NCI-H838	0.915	0.915	0.914	0.861	0.685	0.537	0.47	0.555	0.454	0.366
NCI-H1355	0.789	0.67	0.749	0.691	0.544	0.385	0.432	0.462	0.413	0.382
NCI-H1395	0.392	0.393	0.424	0.372	0.411	1.01	0.974	1.06	0.978	1.02
NCI-H1437	1.18	1.11	1.09	1.09	0.609	0.475	0.448	0.534	0.45	0.329
NCI-H1648	0.659	0.562	0.806	–	0.706	0.434	0.401	0.496	–	0.487
NCI-H1650	–	–	–	–	–	0.541	0.595	0.686	0.559	0.63
NCI-H1651	0.472	0.289	0.508	0.471	0.417	0.821	0.642	0.86	0.849	0.725
NCI-H1666	0.748	0.731	0.865	0.827	0.608	0.826	0.813	0.87	0.958	0.696
NCI-H1703	0.126	0.109	0.135	0.124	0.128	–	–	–	–	–
NCI-H1734	0.579	–	0.586	0.469	0.444	0.645	–	0.802	0.625	0.653
NCI-H1755	0.473	0.405	0.47	0.399	0.476	0.719	0.642	0.823	0.772	0.764
NCI-H1792	0.675	–	0.642	0.667	0.348	0.363	–	0.542	0.386	0.248

Cell Line	relative viability ([1]; first compound 0.02 µM)	relative viability ([1]; first compound 0.06325 µM)	relative viability ([1]; first compound 0.2 µM)	relative viability ([1]; first compound 0.6325 µM)	relative viability ([1]; first compound 2 µM)	relative viability ([2]; first compound 0.02 µM)	relative viability ([2]; first compound 0.06325 µM)	relative viability ([2]; first compound 0.2 µM)	relative viability ([2]; first compound 0.6325 µM)	relative viability ([2]; first compound 2 µM)
NCI-H1793	0.573	0.271	0.612	0.309	0.347	0.411	0.334	0.434	0.421	0.529
NCI-H1915	0.704	0.712	0.705	0.703	0.713	0.289	0.305	0.323	0.301	0.291
NCI-H1944	0.52	0.448	0.535	0.403	0.437	0.394	0.384	0.395	0.38	0.394
NCI-H1975	0.589	0.632	0.705	0.747	0.418	0.273	0.361	0.355	0.33	0.241
NCI-H1993	0.772	0.801	0.963	0.538	0.432	0.516	0.527	0.504	0.452	0.506
NCI-H2009	–	–	–	–	–	0.256	0.356	0.284	0.252	0.232
NCI-H2023	–	–	–	–	–	0.511	0.539	0.516	0.428	0.427
NCI-H2085	0.972	0.845	0.958	0.984	0.918	0.477	0.427	0.56	0.511	0.51
NCI-H2087	1.14	1.36	1.21	1.21	1.26	0.178	0.188	0.17	0.179	0.233
NCI-H2126	0.886	1.16	0.952	0.937	0.581	0.481	0.591	0.538	0.533	0.48
NCI-H2170	0.849	0.866	0.888	0.766	0.874	0.866	1.01	1.03	0.868	0.986
NCI-H2228	–	–	–	–	–	0.51	0.556	0.562	0.398	0.338
NCI-H2342	0.377	0.47	0.453	0.397	0.335	0.698	0.865	0.821	0.801	0.792
NCI-H2347	0.773	0.692	0.778	0.745	0.704	0.296	0.295	0.225	0.312	0.156
NCI-H2405	0.824	0.924	0.762	0.722	0.428	0.622	0.765	0.648	0.623	0.399
NCI-H3122	0.989	1	0.984	0.991	0.913	0.246	0.261	0.237	0.191	0.235
PC-3 [JPC-3]	0.966	1.02	0.9	0.846	0.713	0.627	0.772	0.734	0.736	0.646
PC-14	0.421	0.272	0.423	0.322	0.299	0.702	1.16	0.835	0.738	0.938
RERF-LC-KJ	0.707	0.894	0.962	0.943	0.624	0.815	0.878	0.88	0.738	0.62
SK-LU-1	–	–	–	–	–	0.506	0.417	0.558	0.542	0.407
SK-MES-1	–	–	–	–	–	0.509	0.564	0.643	0.566	0.503
SW 900	0.653	0.571	0.652	–	0.525	0.554	0.853	0.742	–	0.776
SW 1573	–	–	–	–	–	0.538	0.683	0.57	0.572	0.445
